molecular target: KRas G12D/Q61H double mutant (Homo sapiens (Human), UniProt P01116, G12D/Q61H); experiment: Ras GTP binding domain inhibition assay (labeled GTP); details: 20 μM compound; KRas G12D/Q61H double mutant; read-out: % Inhibition at 20 μM of K-Ras mutant and wild-type protein, KRas G12D Q61H
Procedure: Buffer-I: • 50 mM Tris, pH 7.5 • 150 mM NaCl (optional) • 1 mM MgCl2 • 1 mM DTT. • KRas G12D mutant protein was expressed as a His-tagged protein. Purified His-KRas G12D protein was diluted in buffer-I to a final concentration of 3-10 μg/ml. • 200 μl of the diluted His-KRas G12D protein was added to a nickel coated 96 well plate and incubated overnight at 4° C. • The next day, wells were washed 3× in 200 μl of Buffer-I. • Then 200 μl of Buffer-I were added to each well in the presence of 1% DMSO. • Tested compounds were added to the protein-coated wells at a concentration of 20 μM, and incubated for 3 hours at room temperature. While performing IC50 measurements a serial dilution of all tested concentrations was prepared.
Then 22 μl of Cy3-GTP or Cy5-GTP was added to each well. The labeled GTP was incubated for 45 min. at room temperature. • Following GTP incubation, wells were washed 3× in Buffer-I, and 200 μl of Buffer-I were added to each well. • Following washes, the amount of bound labeled-GTP was measured with an Eppendorf AF2200 plate reader.
By substituting KRas G12D mutant protein with KRas G12C mutant, KRas wild type, KRas Q61H mutant, KRas G12D/Q61H double mutant or KRas G12C/Q61H double mutant under the assay conditions described above, KRas G12C mutant KRas wild type, KRas Q61H mutant, KRas G12D/Q61H double mutant and KRas G12C/Q61H double mutant inhibition, respectively, were each determined.

Chain of KRas G12D/Q61H double mutant (P01116-2 other isoform, or with tags, fused parts or gaps G12D/Q61H): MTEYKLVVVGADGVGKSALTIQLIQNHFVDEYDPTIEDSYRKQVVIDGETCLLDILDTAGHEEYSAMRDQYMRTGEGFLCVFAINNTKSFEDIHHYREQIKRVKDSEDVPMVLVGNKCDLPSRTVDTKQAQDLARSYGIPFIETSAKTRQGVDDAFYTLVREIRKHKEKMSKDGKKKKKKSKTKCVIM

Row | inhibition at 20 µM | Structure (SMILES)
1 | 51 to 75% | CC(COc1ccc(Oc2ccccc2)cc1)Oc1ccc(C(F)(F)F)cn1 (stereo not drawn)
2 | 25 to 50% | C=CCN(Cc1ccc(Cl)s1)C(=O)COC(=O)c1cc(OC)ccc1O
3 | 51 to 75% | O=C(COC1CCCC1)Nc1nnc(-c2ccccn2)[nH]1
4 | 25 to 50% | CCN(CC)S(=O)(=O)c1cccc(C(=O)N2N=C(c3ccccc3)CC2(O)C(F)(F)F)c1 (stereo not drawn)
5 | 1 to 25% | CCc1nc2ccccc2c(C(=O)OCC(=O)c2cc(C)n(CCOC)c2C)c1C
6 | 1 to 25% | CCOC(COCCNC(=O)c1ccsc1NC(=O)c1ccc(C(C)C)cc1)OCC
7 | 25 to 50% | COC(=O)c1cc(Cn2nc(C(=O)OC)c(Br)c2C2CC2)c(C)s1
8 | 1 to 25% | CCCCN1CC(c2nc3ccccc3n2CCCCOc2c(C)cccc2C)CC1=O (stereo not drawn)
9 | 1 to 25% | COc1ccc(S(=O)(=O)N2CCCCCC2)cc1C(=O)NCCc1ccccc1C
10 | 1 to 25% | c1ccc(Cc2nc(CN(CCn3cccn3)Cc3csc(Cc4ccccc4)n3)cs2)cc1
11 | 25 to 50% | CC(C)(CN1CCN(c2cccc(Cl)c2)CC1)NS(=O)(=O)c1ccccc1
12 | 1 to 25% | COc1cccc(N2CCN(C(=O)c3ccccc3SCC(=O)N3CCc4ccccc43)CC2)c1
13 | 1 to 25% | Cn1ccnc1C(NCCOc1ccc2cc(Br)ccc2c1)C1CC1 (stereo not drawn)
14 | 25 to 50% | COc1ccc(CCNC(=O)COC(=O)c2c(NC(=O)C(C)(C)C)sc(C)c2C)cc1
15 | 25 to 50% | O=C(COc1ccccc1C(=O)c1cnn(-c2ccccc2)c1)NCC1CCCCC1
16 | 51 to 75% | CCOc1ccc(Oc2ccc(C(F)(F)F)cc2NCc2nc(C)no2)cc1
17 | 25 to 50% | COC(=O)C(NCc1ccc(-c2ccc(Cl)cc2)o1)c1ccccc1 (stereo not drawn)
18 | 25 to 50% | CC(C)(COc1ncccc1C(F)(F)F)Nc1nccc(C(F)(F)F)n1
19 | 1 to 25% | CN(C)S(=O)(=O)c1ccc(OCCn2c(=O)c(N3CCCCC3)c(N)n(C)c2=O)cc1
20 | 25 to 50% | CCOc1ccccc1CN(CCCn1ccnc1)C(=O)Nc1ccc(OC(F)F)c(Cl)c1
21 | 1 to 25% | CN(Cc1ccccc1N1CCOCC1)C(=O)c1ccc(OCc2ccccc2)cc1

Row | Structure (SMILES) | inhibition at 20 µM
22 | CCOC(=O)c1c(NC(=O)c2c(N)n(CCCOC)c3nc4ccccc4nc23)sc2c1CCCC2 | 1 to 25%

same assay, conditions: 20 μM compound; read-out: % Inhibition at 20 μM KRas G12D Q61H

Row | inhibition at 20 µM | Structure (SMILES)
23 | 1 to 25% | O=C(Nc1nc(-c2ccccn2)cs1)c1cc(F)cc(F)c1
24 | 25 to 50% | CCOc1ccc(S(=O)(=O)N(CC(=O)N2CCc3ccccc32)Cc2ccco2)cc1
25 | 1 to 25% | Cc1ccc(CN(C(=O)c2cc(-c3ccccc3Cl)[nH]n2)C2CC2)o1
26 | 25 to 50% | O=S(=O)(Oc1c(Cl)cc(Cl)c2cccnc12)N1CCCCCC1
27 | 1 to 25% | FC(F)(F)c1cccc(N2CCN(c3ncnc4sccc34)CC2)c1
28 | 25 to 50% | COc1ccccc1OCc1ccc(C(=O)N2CCCc3c(F)cc(F)cc32)o1
29 | 25 to 50% | Cc1cc(C(C)C)ccc1OCC(=O)N1N=CCC1(O)C(F)(F)F (stereo not drawn)
30 | 1 to 25% | O=C(c1cc(-c2ccc(F)cc2)[nH]n1)N(Cc1ccco1)C1CCCC1
31 | 1 to 25% | COc1cc(C)ccc1OS(=O)(=O)N1CCc2ccccc2C1
32 | 1 to 25% | Cc1ccc(C(C)C)cc1OS(=O)(=O)N1CCc2ccccc2C1
33 | 25 to 50% | COc1ccc(OC)c(-c2csc(C3CC3)n2)c1
34 | 25 to 50% | CC(C)c1ccc2nc(-c3ccccn3)[nH]c(=O)c2c1
35 | 25 to 50% | COc1ccnc(CN2CCOC(C)(c3ccccc3)C2)c1OC (stereo not drawn)
36 | 25 to 50% | CC(=O)Nc1cccc(CNc2cc(C)nc(-c3ccccn3)n2)c1
37 | 1 to 25% | OCCCSCCNc1nc(-c2ccccn2)nc2c1CCC2
38 | 25 to 50% | Cc1cnn(CCC(=O)Nc2nnc(-c3ccccn3)[nH]2)c1
39 | 1 to 25% | Cc1ccccc1CC(=O)N(CC(F)(F)F)C1CCCOC1 (stereo not drawn)
40 | 25 to 50% | COc1ccc(Br)cc1CN(C)C(C)c1nnc(-c2ccc(C)cc2)o1 (stereo not drawn)
41 | 25 to 50% | Cc1cc(NCCNC(=O)Cc2ccccc2)nc(-c2ccccn2)n1
42 | 1 to 25% | CN(Cc1nnc(-c2ccccc2Cl)o1)Cc1ccccc1N1CCCC1
43 | 1 to 25% | Cc1cccc(OCCn2c(CN3CCCCC3)nc3ccccc32)c1C
44 | 25 to 50% | COc1ccc(CN(Cc2cccs2)C(=O)c2cc3ccccc3o2)cc1OC
45 | 1 to 25% | N#Cc1ccccc1N1CCN(C(=O)c2csc3c(O)nc(-c4ccccn4)nc23)CC1 [drawing 2722]

Row | inhibition at 20 µM | Structure (SMILES)
46 | 25 to 50% | O=C(c1ccc(COc2ccccc2)o1)N1CCCc2ccc(F)cc21
47 | 1 to 25% | O=C1NCCCC1Nc1cc(C(F)(F)F)nc(-c2ccccn2)n1 (stereo not drawn)
48 | 25 to 50% | O=C(CSCc1ccccn1)Nc1nnc(-c2ccccn2)[nH]1
49 | 25 to 50% | COc1ccc(N2CCN(C(=O)c3csc4c(O)nc(-c5ccccn5)nc34)CC2)cc1
50 | 1 to 25% | c1cc2c(cc1-c1csc(C3CC3)n1)CCC2
51 | 51 to 75% | CC1CCN(C(=O)c2csc3c(O)nc(-c4ccccn4)nc23)CC1 [drawing 2674]
52 | 51 to 75% | CCOCCC1CCN(C(=O)c2csc3c(O)nc(-c4ccccn4)nc23)CC1 [drawing 2676]
53 | 25 to 50% | Cc1ccc(OCCn2c(CN3CCCCC3)nc3ccccc32)cc1
54 | 25 to 50% | Cc1c(C(=O)Nc2nc(-c3ccccn3)cs2)oc2ccccc12
55 | 25 to 50% | CCc1c(C)sc2[nH]c(-c3ccccn3)nc(=O)c12
56 | 25 to 50% | CC(C)CCC(=O)Nc1nnc(-c2ccccn2)[nH]1
57 | 25 to 50% | O=C(Cc1ccc(Cl)cc1)Nc1nnc(-c2ccccn2)[nH]1
58 | 25 to 50% | Cc1cc(C2CCCN2c2nccc(C(F)(F)F)n2)no1 (stereo not drawn)
59 | 25 to 50% | Cc1ccccc1Oc1ncccc1NCc1csc(-c2ccccn2)n1
60 | 25 to 50% | O=C(CCc1ccccc1F)Nc1nnc(-c2ccccn2)[nH]1
61 | 25 to 50% | CN(C)S(=O)(=O)c1ccc(CN2CCCc3cc(OC(F)(F)F)ccc32)o1
62 | 25 to 50% | COCCCC1CCN(C(=O)c2csc3c(O)nc(N)nc23)CC1 [drawing 2661]
63 | 1 to 25% | Cc1ccc(-c2nnc(C(C)N3CCCc4ccccc43)o2)cc1 (stereo not drawn)
64 | 1 to 25% | COc1cc(N2CCN(C(=O)c3csc4c(O)nc(-c5ccccn5)nc34)CC2)ccc1O [drawing 2820]
65 | 25 to 50% | COc1cc2c(cc1OC)CCN(C(=O)c1csc3c(O)nc(N)nc13)CC2 [drawing 2672]
66 | 25 to 50% | Cc1oc(-c2ccccc2)nc1CN(C)CC(=O)Nc1ccc(N2CCOCC2)cc1
67 | 25 to 50% | COc1ccc(CN(Cc2cccs2)C(=O)c2oc3ccccc3c2C)cc1OC
68 | 25 to 50% | COc1cccc(OCCn2c(CN3CCCCC3)nc3ccccc32)c1 [drawing 3032]

same assay, conditions: 20 μM; read-out: KRas G12D Q61H % Inh.

Row | inhibition at 20 µM | Structure (SMILES)
69 | 51 to 75% | O=C(Cc1ccc2c(c1)OCO2)Nc1nnc(-c2ccccn2)[nH]1 [drawing 2549]
70 | 51 to 75% | O=C(Cc1cccs1)Nc1nnc(-c2ccccn2)[nH]1 [drawing 2487]
71 | 51 to 75% | O=C(Nc1nnc(-c2ccccn2)[nH]1)C1=NOC(c2ccccc2)C1 (stereo not drawn) [drawing 2544]
72 | 51 to 75% | Cn1cc(C2CC2C(=O)Nc2nnc(-c3ccccn3)[nH]2)cn1 (stereo not drawn) [drawing 2457]
73 | 51 to 75% | O=c1nc(-c2ccccn2)[nH]c2sc(-c3ccccc3)cc12 [drawing 2588]
74 | 51 to 75% | CC(C)(C)c1nc(C(=O)Nc2nnc(-c3ccccn3)[nH]2)cs1 [drawing 2543]
75 | 51 to 75% | O=C(Nc1nnc(-c2ccccn2)[nH]1)c1ncoc1-c1cccs1 [drawing 2501]
76 | 51 to 75% | CC(Oc1cccc(C#N)c1)C(=O)Nc1nnc(-c2ccccn2)[nH]1 (stereo not drawn) [drawing 2511]
77 | 51 to 75% | O=C(Nc1nnc(-c2ccccn2)[nH]1)C1Cc2ccccc2O1 (stereo not drawn) [drawing 2509]
78 | 51 to 75% | CC(C1CC1)N(CC(F)(F)F)C(=O)Cc1ccc(-c2ccccc2)cc1 (stereo not drawn) [drawing 2630]
79 | 51 to 75% | O=C(Nc1nnc(-c2ccccn2)[nH]1)c1ccc(Oc2ccccc2)nc1 [drawing 2491]
80 | 51 to 75% | Cc1ccc(C(=O)Nc2nnc(-c3ccccn3)[nH]2)cc1S(C)(=O)=O [drawing 2461]
81 | 51 to 75% | O=S(=O)(Oc1cc(C(F)(F)F)cc(C(F)(F)F)c1)N1CCc2ccccc2C1 [drawing 2627]
82 | 51 to 75% | Cc1ccc(CC(=O)Nc2nnc(-c3ccccn3)[nH]2)s1 [drawing 2521]
83 | 51 to 75% | O=C(Nc1nnc(-c2ccccn2)[nH]1)c1ccc(OCC2CC2)cc1 [drawing 2522]
84 | 51 to 75% | O=c1nc(-c2ccccn2)[nH]c2scc(-c3cccs3)c12 [drawing 2583]
85 | 51 to 75% | CC(Oc1ccccc1Cl)C(=O)Nc1nnc(-c2ccccn2)[nH]1 (stereo not drawn) [drawing 2467]
86 | 51 to 75% | COc1ccc(CCC(=O)Nc2nnc(-c3ccccn3)[nH]2)cc1F [drawing 2454]

same assay, conditions: read-out: KRas G12D Q61H IC50

Row | IC50 | Structure (SMILES)
87 | < 5 µM | CC(Oc1cccc(C#N)c1)C(=O)Nc1nnc(-c2ccccn2)[nH]1 (stereo not drawn) [drawing 2511]

From patent publication US10940139B2, “Compounds that interact with the Ras superfamily for the treatment of cancers, inflammatory diseases, rasopathies, and fibrotic disease” (Shy Therapeutics LLC, priority 2017, dated 2021)
